# Source: patent US12642857B2, “Degradation of AKT by conjugation of ATP-competitive AKT inhibitor GDC-0068 with E3 ligase ligands and methods of use” (DANA-FARBER CANCER INSTITUTE, INC., priority 2019, dated 2026)
# “Also recorded” adds a separate entry of the source.
# How the values were obtained:
# AKT1 = target: T1, AKT1 (Homo sapiens, UniProt P31749); assay: Z'-LYTE assay (AKT binding assay), AKT1; settings: 10-point dose response, Km ATP, read-out: Biochemical Binding AKT1
# T1 construct: purchased Life Technologies (Invitrogen)
# Method: (§1) Z′-LYTE assays (catalog number PV3193, Invitrogen™) were conducted for AKT1, AKT2, AKT3, PKG1, S6K1, PKN1, βMSK2, and Haspin at Life Technologies™ in a 10-point dose response using Km ATP concentrations. LanthaScreen™ assays were conducted for RET (V804M) in a 10-point dose response at Life Technologies™.
# AKT1, AKT2 and AKT3 [1] = assay: Immunoblot of AKT isoform degradation in MDA-MB-468 cells; type: cell-based, human; settings: 24-hour treatment
# Method: (§2) MDA-MB-468 (human breast cancer cell line) cells were maintained in RPMI 1640 (Wisent Bioproducts) supplemented with 10% FBS (Thermo Fisher Scientific) and MCF10A (human breast epithelial cell line) cells were maintained in Dulbecco's modified Eagle's medium (DMEM)/Ham's F12 (Wisent Bioproducts) supplemented with 5% equine serum (Fisher), insulin (10 μg/ml) (Life Technologies), hydrocortisone (500 ng/ml) (Sigma-Aldrich®), epidermal growth factor (20 ng/ml) (R&D Systems), and cholera toxin (100 ng/ml) (List Biological Lab). MDA-MB-468 and MCF10A cells were seeded at 250,000 cells/mL and 200,000 cells/mL, respectively. The following day cells were treated with inventive bifunctional compounds. After 24 hours, cells were washed with phosphate-buffered saline at 4° C. and lysed in radioimmunoprecipitation assay (RIPA) buffer (150 mM Tris-HCl, 150 mM NaCl, 0.5% (w/v) sodium deoxycholate, 1% (v/v) NP-40, pH 7.5) containing 0.1% (w/v) sodium dodecyl sulfate, 1 mM sodium pyrophosphate, 20 mM sodium fluoride, 50 nM calyculin, and 0.5% (v/v) protease inhibitor cocktail (Sigma-Aldrich®)). Cell extracts were precleared by centrifugation at 14,000 rpm for 10 minutes at 4° C. The Bio-Rad DC protein assay was used to assess protein concentration, and sample concentration was normalized using SDS sample buffer. […] Images were stored and analyzed using ImageStudio™ (LI-COR®) software. […]
# AKT3 = target: T2, AKT3 (Homo sapiens, UniProt Q9Y243); assay: Z'-LYTE assay (AKT binding assay), AKT3; settings: 10-point dose response, Km ATP, read-out: Biochemical Binding AKT3
# T2 construct: purchased Life Technologies (Invitrogen)
# Method: as §1
# AKT1, AKT2 and AKT3 [2] = assay: Immunoblot of AKT isoform degradation in MCF10A cells; type: cell-based, human; settings: 24-hour treatment
# Method: as §2
# AKT2 = target: T3, AKT2 (Homo sapiens, UniProt P31751); assay: Z'-LYTE assay (AKT binding assay), AKT2; settings: 10-point dose response, Km ATP, read-out: Biochemical Binding AKT2
# T3 construct: purchased Life Technologies (Invitrogen)
# Method: as §1
# ZR-75-1 cells = assay: Growth inhibition rate (GR) assay in ZR-75-1 cells; type: cell-based; settings: 72-hour treatment (FIG. 6A)
# Excerpt: FIG. 6A-FIG. 6F are a set of graphs that show growth inhibition rate (GR) values across concentrations in ZR-75-1 (FIG. 6A), T47D (FIG. 6B), LNCaP (FIG. 6C), MCF-7 (FIG. 6D), MDA-MB-468 (FIG. 6E), and HCC1937 (FIG. 6F) cells after 72-hour treatment with GDC-0068 (blue), inventive bifunctional compound 10 (red), bifunctional compound 10-Me (negative control) (green), and lenalidomide (orange). Error bars represent the standard deviation of three technical replicates.
# T1 sequence (P31749 whole entry): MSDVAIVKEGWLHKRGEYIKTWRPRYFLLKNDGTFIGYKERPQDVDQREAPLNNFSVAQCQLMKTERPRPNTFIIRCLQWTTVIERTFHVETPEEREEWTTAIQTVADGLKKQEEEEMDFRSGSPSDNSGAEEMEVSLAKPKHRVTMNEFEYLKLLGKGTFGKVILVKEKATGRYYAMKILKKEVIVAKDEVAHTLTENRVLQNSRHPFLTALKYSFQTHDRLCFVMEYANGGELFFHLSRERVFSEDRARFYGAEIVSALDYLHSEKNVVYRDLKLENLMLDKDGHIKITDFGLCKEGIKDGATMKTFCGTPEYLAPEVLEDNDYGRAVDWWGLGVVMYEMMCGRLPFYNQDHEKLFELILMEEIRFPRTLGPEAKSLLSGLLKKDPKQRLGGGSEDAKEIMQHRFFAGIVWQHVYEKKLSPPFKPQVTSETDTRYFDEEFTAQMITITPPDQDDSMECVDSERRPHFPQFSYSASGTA
# T3 sequence (P31751 whole entry): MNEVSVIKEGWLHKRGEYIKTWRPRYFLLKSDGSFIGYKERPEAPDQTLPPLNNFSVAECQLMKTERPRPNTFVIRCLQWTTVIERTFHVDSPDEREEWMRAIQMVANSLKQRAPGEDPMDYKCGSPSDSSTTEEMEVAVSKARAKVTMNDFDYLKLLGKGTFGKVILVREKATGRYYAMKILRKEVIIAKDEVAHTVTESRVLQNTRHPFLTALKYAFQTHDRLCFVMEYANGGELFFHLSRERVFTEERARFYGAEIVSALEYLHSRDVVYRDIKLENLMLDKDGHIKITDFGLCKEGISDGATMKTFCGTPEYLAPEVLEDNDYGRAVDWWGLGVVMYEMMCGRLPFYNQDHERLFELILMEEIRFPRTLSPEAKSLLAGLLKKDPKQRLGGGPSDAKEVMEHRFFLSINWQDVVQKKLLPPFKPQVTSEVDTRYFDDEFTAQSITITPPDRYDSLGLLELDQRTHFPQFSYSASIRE
# T2 sequence (Q9Y243 whole entry): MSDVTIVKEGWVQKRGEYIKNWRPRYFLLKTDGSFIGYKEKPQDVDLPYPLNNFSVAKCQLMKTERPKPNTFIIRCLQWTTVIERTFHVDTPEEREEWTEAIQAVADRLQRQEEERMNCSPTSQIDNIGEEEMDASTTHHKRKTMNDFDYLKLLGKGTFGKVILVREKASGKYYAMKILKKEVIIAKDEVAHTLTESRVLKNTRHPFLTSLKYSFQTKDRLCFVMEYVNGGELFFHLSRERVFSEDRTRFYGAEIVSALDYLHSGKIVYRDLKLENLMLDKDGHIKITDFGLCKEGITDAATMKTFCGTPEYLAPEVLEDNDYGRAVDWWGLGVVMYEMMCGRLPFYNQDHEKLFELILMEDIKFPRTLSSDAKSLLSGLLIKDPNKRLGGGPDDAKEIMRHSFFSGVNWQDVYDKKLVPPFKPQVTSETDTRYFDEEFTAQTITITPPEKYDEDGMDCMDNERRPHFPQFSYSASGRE
SMILES,IC50 (AKT1) [nM],IC50 (AKT3) [nM],IC50 (AKT2) [nM],further results
"Cc1ncsc1-c1ccc([C@H](C)NC(=O)[C@@H]2C[C@@H](O)CN2C(=O)[C@@H](NC(=O)CCOCCOCCNC[C@@H](C(=O)N2CCN(c3ncnc4c3[C@H](C)C[C@H]4O)CC2)c2ccc(Cl)cc2)C(C)(C)C)cc1 [Compound 6, (2S,4R)-1-((2S,15S)-2-(tert-butyl)-15-(4-chlorophenyl)-16-(4-((5R,7R)-7-hydroxy-5-methyl-6,7-dihydro-5H-cyclopenta[d]pyrimidin-4-yl)piperazin-1-yl)-4,16-dioxo-7,10-dioxa-3,13-diazahexadecanoyl)-4-hydroxy-N—((S)-1-(4-(4-methylthiazol-5-yl)phenyl)ethyl)pyrrolidine-2-carboxamide]",3.8,,,
"C[C@@H]1C[C@@H](O)c2ncnc(N3CCN(C(=O)[C@H](CNCCOCCOCCNC(=O)COc4cccc5c4C(=O)N(C4CCC(=O)NC4=O)C5=O)c4ccc(Cl)cc4)CC3)c21 (stereo partly drawn) [Compound 4, N-(2-(2-(2-(((S)-2-(4-chlorophenyl)-3-(4-((5R,7R)-7-hydroxy-5-methyl-6,7-dihydro-5H-cyclopenta[d]pyrimidin-4-yl)piperazin-1-yl)-3-oxopropyl)amino)ethoxy)ethoxy)ethyl)-2-((2-(2,6-dioxopiperidin-3-yl)-1,3-dioxoisoindolin-4-yl)oxy)acetamide]",6.97,,,
"C[C@@H]1C[C@@H](O)c2ncnc(N3CCN(C(=O)[C@H](CNCCCCc4cccc5c4C(=O)N(C4CCC(=O)NC4=O)C5=O)c4ccc(Cl)cc4)CC3)c21 (stereo partly drawn) [Compound 9, 4-(4-(((S)-2-(4-chlorophenyl)-3-(4-((5R,7R)-7-hydroxy-5-methyl-6,7-dihydro-5H-cyclopenta[d]pyrimidin-4-yl)piperazin-1-yl)-3-oxopropyl)amino)butyl)-2-(2,6-dioxopiperidin-3-yl)isoindoline-1,3-dione]",1.8,,,
"C[C@@H]1C[C@@H](O)c2ncnc(N3CCN(C(=O)[C@H](CNCCOCCNC(=O)COc4cccc5c4C(=O)N(C4CCC(=O)NC4=O)C5=O)c4ccc(Cl)cc4)CC3)c21 (stereo partly drawn) [Compound 5, N-(2-(2-(((S)-2-(4-chlorophenyl)-3-(4-((5R,7R)-7-hydroxy-5-methyl-6,7-dihydro-5H-cyclopenta[d]pyrimidin-4-yl)piperazin-1-yl)-3-oxopropyl)amino)ethoxy)ethyl)-2-((2-(2,6-dioxopiperidin-3-yl)-1,3-dioxoisoindolin-4-yl)oxy)acetamide]",3.4,,,
"Cc1ncsc1-c1ccc([C@H](C)NC(=O)[C@@H]2C[C@@H](O)CN2C(=O)[C@@H](NC(=O)CCOCCCNC[C@@H](C(=O)N2CCN(c3ncnc4c3[C@H](C)CC4)CC2)c2ccc(Cl)cc2)C(C)(C)C)cc1 [Compound 1, (2S,4R)-1-((S)-2-(3-(3-(((S)-2-(4-chlorophenyl)-3-(4-((R)-5-methyl-6,7-dihydro-5H-cyclopenta[d]pyrimidin-4-yl)piperazin-1-yl)-3-oxopropyl)amino)propoxy)propanamido)-3,3-dimethylbutanoyl)-4-hydroxy-N—((S)-1-(4-(4-methylthiazol-5-yl)phenyl)ethyl)pyrrolidine-2-carboxamide]",1.58,4.94,15.1,"Degradation of AKT isoforms (AKT1, AKT2 and AKT3 [1]): degraded in MDA-MB-468 cells in a dose-dependent manner; also recorded: degraded in MDA-MB-468 cells (FIG. 3); Degradation of AKT isoforms (AKT1, AKT2 and AKT3 [2]): degraded in MCF10A cells in a dose-dependent manner"
"C[C@@H]1C[C@@H](O)c2ncnc(N3CCN(C(=O)[C@H](CNCCCCCCCCC#Cc4cccc5c4CN(C4CCC(=O)NC4=O)C5=O)c4ccc(Cl)cc4)CC3)c21 (stereo partly drawn) [Compound 7, 3-(4-(10-(((S)-2-(4-chlorophenyl)-3-(4-((5R,7R)-7-hydroxy-5-methyl-6,7-dihydro-5H-cyclopenta[d]pyrimidin-4-yl)piperazin-1-yl)-3-oxopropyl)amino)dec-1-yn-1-yl)-1-oxoisoindolin-2-yl)piperidine-2,6-dione]",2.46,,,
"C[C@@H]1C[C@@H](O)c2ncnc(N3CCN(C(=O)[C@H](CNCCCCCCCCCCc4cccc5c4CN(C4CCC(=O)N(C)C4=O)C5=O)c4ccc(Cl)cc4)CC3)c21 (stereo partly drawn) [Compound 10-Me, 3-(4-(10-(((S)-2-(4-chlorophenyl)-3-(4-((5R,7R)-7-hydroxy-5-methyl-6,7-dihydro-5H-cyclopenta[d]pyrimidin-4-yl)piperazin-1-yl)-3-oxopropyl)amino)decyl)-1-oxoisoindolin-2-yl)-1-methylpiperidine-2,6-dione]",,,,"Anti-proliferative potency relative to compound 10 (ZR-75-1 cells): significantly less potent; GR50 (ZR-75-1 cells; Homo sapiens, read-out: GR50): 413 nM"
"C[C@@H]1C[C@@H](O)c2ncnc(N3CCN(C(=O)[C@H](CNCCCNC(=O)COc4cccc5c4C(=O)N(C4CCC(=O)NC4=O)C5=O)c4ccc(Cl)cc4)CC3)c21 (stereo partly drawn) [Compound 2, N-(3-(((S)-2-(4-chlorophenyl)-3-(4-((5R,7R)-7-hydroxy-5-methyl-6,7-dihydro-5H-cyclopenta[d]pyrimidin-4-yl)piperazin-1-yl)-3-oxopropyl)-amino)propyl)-2-((2-(2,6-dioxopiperidin-3-yl)-1,3-dioxoisoindolin-4-yl)oxy) acetamide]",3.93,20.4,31.4,
"C[C@@H]1C[C@@H](O)c2ncnc(N3CCN(C(=O)[C@H](CNCCCCCCCCNC(=O)COc4cccc5c4C(=O)N(C4CCC(=O)NC4=O)C5=O)c4ccc(Cl)cc4)CC3)c21 (stereo partly drawn) [Compound 3, N-(8-(((S)-2-(4-chlorophenyl)-3-(4-((5R,7R)-7-hydroxy-5-methyl-6,7-dihydro-5H-cyclopenta[d]pyrimidin-4-yl)piperazin-1-yl)-3-oxopropyl)amino)octyl)-2-((2-(2,6-dioxopiperidin-3-yl)-1,3-dioxoisoindolin-4-yl)oxy)acetamide]",1.03,1.23,4.04,"Degradation of AKT isoforms (AKT1, AKT2 and AKT3 [1]): degraded in MDA-MB-468 cells in a dose-dependent manner; also recorded: degraded in MDA-MB-468 cells (FIG. 3); Degradation of AKT isoforms (AKT1, AKT2 and AKT3 [2]): degraded in MCF10A cells in a dose-dependent manner"
